Laboratory results reported in PubChem BioAssay (NCI).
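Protocol summary: plate cells (96-well), add compound at 5 concentrations, incubate 48 h, interpolate endpoints linearly. TGI denotes the concentration required for complete inhibition of growth.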

Assays:
Test in all cases: NCI-60 cell line screen, 48 h
786-0 renal = test system: 786-0 renal
A498 renal = test system: A498 renal
A549 NSCLC = test system: A549 NSCLC
ACHN renal = test system: ACHN renal
CAKI-1 renal = test system: CAKI-1 renal
CCRF-CEM leukemia = test system: CCRF-CEM leukemia
COLO 205 colon = test system: COLO 205 colon
DLD-1 colon = test system: DLD-1 colon
DMS 114 small cell lung = test system: DMS 114 small cell lung
DMS 273 small cell lung = test system: DMS 273 small cell lung
EKVX NSCLC = test system: EKVX NSCLC
HCC-2998 colon = test system: HCC-2998 colon
HCT-116 colon = test system: HCT-116 colon
HCT-15 colon = test system: HCT-15 colon
HL-60(TB) leukemia = test system: HL-60(TB) leukemia
HOP-62 NSCLC = test system: HOP-62 NSCLC
HT29 colon = test system: HT29 colon
IGROV1 ovarian = test system: IGROV1 ovarian
K-562 leukemia = test system: K-562 leukemia
KM12 colon = test system: KM12 colon
KM20L2 colon = test system: KM20L2 colon
LOX IMVI melanoma = test system: LOX IMVI melanoma
LXFL 529 NSCLC = test system: LXFL 529 NSCLC
M14 melanoma = test system: M14 melanoma
MOLT-4 leukemia = test system: MOLT-4 leukemia
NCI-H226 lung = test system: NCI-H226 lung
NCI-H23 lung = test system: NCI-H23 lung
NCI-H460 lung = test system: NCI-H460 lung
NCI-H522 lung = test system: NCI-H522 lung
OVCAR-3 ovarian = test system: OVCAR-3 ovarian
OVCAR-4 ovarian = test system: OVCAR-4 ovarian
OVCAR-5 ovarian = test system: OVCAR-5 ovarian
OVCAR-8 ovarian = test system: OVCAR-8 ovarian
RPMI-8226 leukemia = test system: RPMI-8226 leukemia
RXF 393 renal = test system: RXF 393 renal
SF-268 CNS = test system: SF-268 CNS
SF-295 CNS = test system: SF-295 CNS
SF-539 CNS = test system: SF-539 CNS
SK-MEL-2 melanoma = test system: SK-MEL-2 melanoma
SK-MEL-28 melanoma = test system: SK-MEL-28 melanoma
SN12C renal = test system: SN12C renal
SNB-19 CNS = test system: SNB-19 CNS
SNB-75 CNS = test system: SNB-75 CNS
SNB-78 CNS = test system: SNB-78 CNS
SR leukemia = test system: SR leukemia
SW-620 colon = test system: SW-620 colon
TK-10 renal = test system: TK-10 renal
U251 CNS = test system: U251 CNS
UACC-257 melanoma = test system: UACC-257 melanoma
UACC-62 melanoma = test system: UACC-62 melanoma
UO-31 renal = test system: UO-31 renal
M19-MEL melanoma = test system: M19-MEL melanoma
MALME-3M melanoma = test system: MALME-3M melanoma
SK-MEL-5 melanoma = test system: SK-MEL-5 melanoma
SK-OV-3 ovarian = test system: SK-OV-3 ovarian
XF 498 CNS = test system: XF 498 CNS

Measured: TGI

C=C1c2[nH]c3c([N+](=O)[O-])c(OC)ccc3c2CCN1C(C)=O
38.4 µM: DLD-1 colon
42.5 µM: SNB-75 CNS
not listed: M19-MEL melanoma | MALME-3M melanoma | SK-MEL-5 melanoma | SK-OV-3 ovarian | XF 498 CNS
> 100 µM: all other assays above

COc1ccc(OC)c2c1C(=O)C1CC1(Br)C2=O (configuration not stated)
not listed: NCI-H226 lung | RXF 393 renal | SNB-75 CNS | SNB-78 CNS | SR leukemia
> 100 µM: all other assays above
